Experimental data taken from publication PMC5962653 (Frontiers in Microbiology, 2018).
Values after ≈ are worked out from the molar mass of the structure shown. Where two headings read alike, the source gives them in different places. Marks after values point to notes of the source that are not given here.

Experiments:
[1] = system: K. pneumoniae Kp28, OXA-48 plus CTX-M-15 producer; test: MIC by broth microdilution (agar dilution for fosfomycin); assay type: cell-based, Klebsiella pneumoniae; settings: supplement table, strain KPc28; for MIC: Klebsiella pneumoniae; for SIR, classification according to EUCAST definitions: EUCAST 2016 breakpoints, fosfomycin by agar dilution
Description: (§1) Four genetically unrelated clinical isolates of CP-Kp were studied: Kp07, a VIM-1 ST 1603 clone producer ([Miro et al., 2013]); Kp21, which co-produced VIM-1 and the acquired AmpC type beta-lactamase DHA-1 ST 11 clone ([Miro et al., 2013]); Kp28, co-producing OXA-48 ST11 clone and the extended spectrum beta-lactamase (ESBL) CTX-M-15 ([Oteo et al., 2015]); and Kp29, co-producing KPC-3 ST512 clone with the broad spectrum beta-lactamases TEM-1 and SHV-11 ([Lopez-Cerero et al., 2014]), thereinafter VIM-1, VIM-1/DHA-1, OXA-48 plus CTX-M-15, and KPC-3 producers, respectively. Identification of these isolates was confirmed by a Microflex LT-MALDI Biotyper mass spectrometer (Bruker Daltonics GmbH, Bremen, Germany). The presence of carbapenemase genes, and genes coding for other beta-lactamases was confirmed by PCR and sequencing as described previously. The absence of genetic relation among the isolates was confirmed by PFGE analysis of chromosomal restriction fragments obtained after XbaI cleavage following the criteria of [Tenover et al. (1995)]. […] The antibiotic susceptibility profiles are included in the Supplementary Information.
(§2) MICs of antibiotics were determined by broth microdilution as recommended by the [Clinical and Laboratory Standards Institute [CLSI] (2012)], using Mueller Hinton broth II (MHB) (Becton Dickinson & Co., Sparks, MD, United States) and agar dilution method for fosfomycin. MIC results were interpreted according to the [European Committee on Antimicrobial Susceptibility Testing [EUCAST] (2016)]^1 breakpoints. Studies were performed in triplicate.

[2] = system: K. pneumoniae Kp07, VIM-1 producer; test: as above; assay type: cell-based, Klebsiella pneumoniae; settings: supplement table, strain KPc07; for MIC: Klebsiella pneumoniae; for SIR, classification according to EUCAST definitions: EUCAST 2016 breakpoints, fosfomycin by agar dilution
Description: as §1, §2

[3] = system: K. pneumoniae Kp29, KPC-3 producer; test: as above; assay type: cell-based, Klebsiella pneumoniae; settings: for MIC: Klebsiella pneumoniae
Description: as §1, §2

[4] = system: K. pneumoniae Kp21, VIM-1/DHA-1 producer; test: as above; assay type: cell-based, Klebsiella pneumoniae; settings: supplement table, strain KPc21; for MIC: Klebsiella pneumoniae; for SIR, classification according to EUCAST definitions: EUCAST 2016 breakpoints, fosfomycin by agar dilution
Description: as §1, §2

[5] = system: K. pneumoniae OXA-48 plus CTX-M-15 strain; test: Murine peritoneal sepsis model; assay type: in vivo, C57BL/6 mice infected with Klebsiella pneumoniae; settings: CMS 20 mg/kg/8 h ip, rifampin 25 mg/kg/6 h ip, alone or combined; for Mice mortality (%) / Log10 cfu/g spleen (mean ±SD): 72 h, from 4 h post-inoculation; for Log10 cfu/g spleen (mean ±SD): ip MLD 9.35 log10 cfu/mL, at death or 72 h; for Bacteremia (%): qualitative blood cultures at death or 72 h
Method: (§3) A previously described murine peritoneal sepsis model was used ([Parra Millan et al., 2016]). Briefly, groups of un-anesthetized C57BL/6 mice were infected by ip injection of 0.5 mL of the Minimal Lethal Dose (MLD) of each strain, corresponding to (log10 cfu/mL): 8.97, 8.94 9.35, and 8.38 for VIM-1, VIM-1/DHA-1, OXA-48 plus CTX-M-15, and KPC-3 strains, respectively. Treatments were initiated 4 h post-inoculation. […] Afterward, mice were treated and monitored for 72 h. […] Samples were extracted and processed immediately after the death of mice; the survivor mice were sacrificed (sodium thiopental) at the 72 h. Aseptic thoracotomies were carried out, and blood samples were obtained for qualitative blood cultures; results were expressed as positive (≥1 cfu present in the plate) or negative. Spleens were aseptically extracted, weighed, and homogenized in sterile saline (Stomacher 80; Tekmar Co., Cincinnati, OH, United States) before quantitative cultures (log10 cfu/g) in Columbia agar with 5% sheep blood plates.
(§4) Mortality and bacteremia rates are expressed as percentages and bacterial tissue concentrations (log10 cfu/g) as means ±SD. The two-tailed Fisher’s test, analysis of variance (ANOVA), and the Dunnet and Tukey post hoc tests were used. A P < 0.05 was considered significant. The SPSS v22.0 statistical package was used (SPSS Inc).

[6] = Serum pharmacokinetics in healthy mice; settings: single ip dose (CMS 20 mg/kg; rifampin 25 mg/kg), LC-MS/MS, PKSOLVER
Method: (§7) Mice were housed in an individually ventilated cage system under specific pathogen-free conditions, and water and food supplied ad libitum. […] All procedures were performed under sodium thiopental (B. Braun Medical S.A., Spain) anesthesia, and all efforts were made to minimize suffering.
(§8) Blood samples were immediately centrifuged (4500 rpm, 15 min at 4°C), and serum samples stored at -80°C until the analysis. Both serum free and total antibiotic concentrations were measured using HPLC-tandem mass spectrometry (LC-MS/MS) ([Waters et al., 2008]; [Gobin et al., 2010]). Free fractions of the drugs were calculated as described previously ([Waters et al., 2008]; [Gonzalez et al., 2013]; [Cheah et al., 2015]).

[7] = system: K. pneumoniae VIM-1 strain; assay type: in vivo; settings: CMS 20 mg/kg/8 h ip, rifampin 25 mg/kg/6 h ip, alone or combined; for Bacteremia (%): qualitative blood cultures at death or 72 h
Method: as §3, §4

[8] = system: K. pneumoniae VIM-1/DHA-1 strain; assay type: in vivo; settings: CMS 20 mg/kg/8 h ip, rifampin 25 mg/kg/6 h ip, alone or combined; for Mice mortality (%) / Log10 cfu/g spleen (mean ±SD): 72 h, from 4 h post-inoculation; for Log10 cfu/g spleen (mean ±SD): ip MLD 8.94 log10 cfu/mL, at death or 72 h; for Bacteremia (%): qualitative blood cultures at death or 72 h
Method: as §3, §4

[9] = system: K. pneumoniae OXA-48 plus CTX-M-15 producer; assay type: cell-based, Klebsiella pneumoniae; settings: colistin 0.5 mg/L (MIC), rifampin 2 mg/L, alone or combined; inoculum 1 × 10^6 cfu/mL, 37°C, samples 0-24 h; three experiments
Method: (§5) (2016)]. […] Tubes were incubated at 37°C, with shaking, and samples were taken at 0, 1, 3, 6, and 24 h, serially diluted and plated using a spiral platter (Eddy Jet, IUL S.A., Barcelona, Spain). Bacterial colonies were counted using an automatic counter (Flash & Go, IUL S.A., Barcelona, Spain) ([Pournaras et al., 2011]; [Souli et al., 2011]). Experiments were performed three times on separate occasions. […] Bactericidal activities of single antibiotics or combination were defined as a decrease ≥ 3 log10 cfu/mL from the starting inoculum ([Souli et al., 2009]). Studies were performed in triplicate.
(§6) The RIF concentration used for all strains was 2 mg/L. RIF, filled circles; CST, filled squares; combination of both antimicrobials, filled triangles.

[10] = system: K. pneumoniae VIM-1 producer; assay type: cell-based, Klebsiella pneumoniae; settings: colistin 0.5 mg/L (MIC), rifampin 2 mg/L, alone or combined; inoculum 1 × 10^6 cfu/mL, 37°C, samples 0-24 h; three experiments
Method: as §5, §6

[11] = system: K. pneumoniae VIM-1/DHA-1 producer; assay type: cell-based, Klebsiella pneumoniae; settings: colistin 2 mg/L (EUCAST breakpoint), rifampin 2 mg/L, alone or combined; inoculum 1 × 10^6 cfu/mL, 37°C, samples 0-24 h; three experiments
Method: as §5, §6

[12] = system: K. pneumoniae OXA-48 plus CTX-M-15 strain; assay type: in vivo; settings: for Bacteremia (%): blood cultures at death or 72 h; for Log10 cfu/g lung (mean ±SD): intratracheal 50 μl of 8.18 log10 cfu/mL, at death or 72 h
Method: A previously characterized murine pneumonia model was used ([Pachon-Ibanez et al., 2010]; [Docobo-Perez et al., 2012]; [Parra Millan et al., 2016]) with the OXA-48 plus CTX-M-15 strain, as OXA-48 is the most prevalent carbapenemase in Spain nowadays ([Palacios-Baena et al., 2016]). Anesthetized mice were infected intratracheally, using 50 μl of a final inoculum of 8.18 log10 cfu/mL. Therapies were initiated 4 h post-infection and treatment groups and dosages were the same as in the peritoneal sepsis model. Mice were treated and monitored over 72 h. After death or sacrifice of the mice at 72 h, blood and lungs samples were aseptically obtained and processed as detailed above.
as §4

[13] = mouse, in vivo
Method: as §7, §8

[14] = system: K. pneumoniae KPC-3 strain; assay type: in vivo, C57BL/6 mice infected with Klebsiella pneumoniae; settings: CMS 20 mg/kg/8 h ip, rifampin 25 mg/kg/6 h ip, alone or combined
Method: as §3, §4

[15] = broth microdilution, read-out: MIC
[16] = agar dilution, read-out: MIC (agar dilution method)
[17] = supplement table, strain KPc29, EUCAST 2016 breakpoints, fosfomycin by agar dilution
[18] = 72 h, from 4 h post-inoculation
[19] = CMS 20 mg/kg/8 h ip, rifampin 25 mg/kg/6 h ip, alone or combined
[20] = CMS 20 mg/kg/8 h ip, rifampin 25 mg/kg/6 h ip, alone or combined, from 4 h post-infection, 72 h

| Molecule | MIC [1, 15] | SIR, classification according to EUCAST definitions [1] | MIC [2, 15] | SIR, classification according to EUCAST definitions [2] | MIC [3] | MIC [4, 15] | SIR, classification according to EUCAST definitions [4] | SIR, classification according to EUCAST definitions [3, 17] | Mice mortality (%) [5] | Log10 cfu/g spleen (mean ±SD) [5] | Bacteremia (%) [5] | Mice mortality (%) [7, 18] | Bacteremia (%) [7] | Mice mortality (%) [8] | Log10 cfu/g spleen (mean ±SD) [8] | Bacteremia (%) [8] | Bacteremia (%) [12, 19] | Log10 cfu/g lung (mean ±SD) [12, 20] | also measured |
| --- | --- | --- | --- | --- | --- | --- | --- | --- | --- | --- | --- | --- | --- | --- | --- | --- | --- | --- | --- |
| NCC[C@H](O)C(=O)N[C@@H]1C[C@H](N)[C@@H](O[C@H]2O[C@H](CN)[C@@H](O)[C@H](O)[C@H]2O)[C@H](O)[C@H]1O[C@H]1O[C@H](CO)[C@@H](O)[C@H](N)[C@H]1O [Amikacin] | 1 µg/mL (≈ 1.71 µM) | S | 1 µg/mL (≈ 1.71 µM) | S | > 32 µg/mL | 4 µg/mL (≈ 6.83 µM) | S | – | – | – | – | – | – | – | – | – | – | – | SIR, classification according to EUCAST definitions [3]: R |
| C[C@@H]1O[C@@H]1P(=O)(O)O [Fosfomycin] | – | S | – | S | – | – | S | R | – | – | – | – | – | – | – | – | – | – | MIC [1, 16]: 32 µg/mL (≈ 232 µM); MIC [2, 16]: 8 µg/mL (≈ 57.9 µM); MIC ([3]; supplement table, strain KPc29, agar dilution, read-out: MIC (agar dilution method)): 64 µg/mL (≈ 464 µM); MIC [4, 16]: 8 µg/mL (≈ 57.9 µM) |
| CNC(C)C1CCC(N)C(OC2C(N)CC(N)C(OC3OCC(C)(O)C(NC)C3O)C2O)O1 (stereo not drawn) [Gentamicin] | 0.5 µg/mL (≈ 1.05 µM) | S | 4 µg/mL (≈ 8.38 µM) | I | – | 2 µg/mL (≈ 4.19 µM) | S | S | – | – | – | – | – | – | – | – | – | – | – |
| C[C@@H](O)[C@H]1C(=O)N2C(C(=O)O)=C(S[C@@H]3CN[C@H](C(=O)N(C)C)C3)[C@H](C)[C@H]12 [Meropenem] | 2 µg/mL (≈ 5.22 µM) | S | 2 µg/mL (≈ 5.22 µM) | S | > 32 µg/mL | 16 µg/mL (≈ 41.7 µM) | R | R | – | – | – | – | – | – | – | – | – | – | – |
| CO[C@H]1/C=C/O[C@@]2(C)Oc3c(C)c(O)c4c(O)c(c(/C=N/N5CCN(C)CC5)c(O)c4c3C2=O)NC(=O)/C(C)=C\C=C\[C@H](C)[C@H](O)[C@@H](C)[C@@H](O)[C@@H](C)[C@H](OC(C)=O)[C@@H]1C [Rifampin, rifampin] | – | – | – | – | – | – | – | – | 100% | 8.24 ± 0.76^c log10 cfu/g | 100% | 100% | 100% | 100% | 9.68 ± 0.09 log10 cfu/g | 100% | 20% | 3.07 ± 1.63^a log10 cfu/g | AUC0-24, free drug in serum (fAUC0-24) ([6]; free (fCST, fRIF)): 44.14 mg⋅h/L; Cmax, free drug in serum ([6]; free (fCST, fRIF), sets of three mice): 2900 ng/mL; AUC0-24, total drug in serum ([6]; total (tCST, tRIF)): 1103.58 mg⋅h/L; Cmax, total drug in serum ([6]; total (tCST, tRIF), sets of three mice): 72580 ng/mL; Bactericidal activity in time-kill curves (decrease ≥ 3 log10 cfu/mL from the starting inoculum) [9]: did not show bactericidal activity; Bactericidal activity in time-kill curves (decrease ≥ 3 log10 cfu/mL from the starting inoculum) [10]: did not show bactericidal activity; Bactericidal activity in time-kill curves (decrease ≥ 3 log10 cfu/mL from the starting inoculum) [11]: did not show bactericidal activity |
| colistimethate sodium [CMS] | – | – | – | – | – | – | – | – | 100% | 9.52 ± 0.55 log10 cfu/g | 100% | 93.33% | 100% | 100% | 9.54 ± 0.34 log10 cfu/g | 100% | 40% | 5.14 ± 3.78 log10 cfu/g | t1/2, free drug in serum [13]: 3.82 h; t1/2, total drug in serum [13]: 3.82 h; Log10 cfu/g spleen (mean ±SD) ([7]; ip MLD 8.97 log10 cfu/mL, from 4 h post-inoculation, 72 h, at death or 72 h, SD): 8.60 ± 0.30 log10 cfu/g; Mice mortality (%) [14, 18]: 75%; Log10 cfu/g spleen (mean ±SD) ([14]; ip MLD 8.38 log10 cfu/mL, from 4 h post-inoculation, 72 h, at death or 72 h, SD): 9.19 ± 1.85 log10 cfu/g; Bacteremia (%) ([14]; qualitative blood cultures at death or 72 h): 100%; Mice mortality (%) ([12]; 72 h, CMS 20 mg/kg/8 h ip, rifampin 25 mg/kg/6 h ip, alone or combined, from 4 h post-infection): 26.70%; Bacterial lung decrease ([12]; CMS monotherapy 20 mg/kg/8 h ip vs control group, not significant): 2.91 log10 cfu/g |
